Results taken from patent US9162992B2, “Compounds and compositions for treatment of breathing control disorders or diseases” (GALLEON PHARMACEUTICALS, INC., priority 2010, dated 2015).

Columns and labels:
[1] = Stability across narrow pH 2-3.6 (1 mg/mL; 10 mM citric acid and glycine); type: physicochemical; design: Assay: unit not given here; settings: for Impurities: in %
Protocol: Buffer solutions containing ca. 10 mM each of citric acid and glycine in the pH range 2-3.6 were prepared by titrating 250 mL of a single stock containing both buffer agents with 1N NaOH/1N HCl and removing 50 mL aliquots at predetermined pH values. (XXXVI) solutions at 1 mg/mL were prepared in the buffers by dissolving ˜25 mg of (XXXVI) in ca. 23 mL of a given buffer, adjusting the pH to the target and making up the volume to 25.0 mL in a volumetric flask. Each of the buffered (XXXV) solutions was filtered through a 0.2 μm polyether sulfone syringe filter into a volumetric flask previously rinsed with 70% ethanol and dried in a laminar flow hood. Following filtration, each buffered (XXXV) solution was split into 9 aliquots in 5 mL serum vials previously rinsed with 70% ethanol and dried in a laminar flow hood. Filtration and preparation of aliquots were performed in a laminar flow hood. Of the nine aliquots, three aliquots were stored at each 40° C. and 60° C., two aliquots were stored at 25° C. and one aliquot was submitted for T0 testing. Samples were evaluated for pH, assay and related substances at T0 and, following 1 week, 2 weeks and 4 weeks of storage at 40° C. and 60° C. Samples stored at 25° C. served as controls to be analyzed if necessary

[2] = system: hypoxic ventilatory response; assay: Hypoxic ventilatory response (HVR) in the rat, plethysmography; type: in vivo; settings: 0.03 mg/kg/min infusion 50 min; 12% O2 for 20 min; vs vehicle
Protocol: Rats with a pre-cannulated jugular vein (for administering drugs) were acclimated to plethysmography chambers for a minimum of 60 minutes, or until animals were no longer restless. Each animal was dosed with compound (XXXVI), labeled as cmpd (A), at 0.03 mg/kg/min via infusion into the jugular vein catheter for a period of 50 minutes. After a period of 20 minutes, an isocapnic hypoxic mixture (12% O2 balanced N2) was administered into all chambers using a gas mixer (CWE inc. GSM-3 gas mixer) for 20 minutes. After this time, the gas mixer was turned off, resulting in normal room air pumped into the chambers. Ten minutes later, the infusion pumps were turned off, and all animals were given a 20 minute recovery period, followed by a post-study analysis of rat health and behavior. […] Results are illustrated in FIG. 3.

In the case of `CCCNc1nc(NCCC)nc(N(C)OC)n1` [XXXV, N-(4,6-Bis-n-propylamino-[1,3,5]triazin-2-yl)-N,O-dimethyl-hydroxylamine], the “pH dependence of impurity levels” value ([1]; 40° C. and 60° C. storage, pH 2-3.6) is reported as “impurity levels decreased significantly with increasing pH”, the “impurity levels at pH 2 vs. impurity levels at pH 3.6” value ([1]; pH range 2-3.6) is reported as at least 10 fold and the Assay ([1]; target pH 2.0, 40° C. 1 wk) is reported as 0.959. It also gave a pH ([1]; target pH 2.0, 40° C. 1 wk) of 2.00, an Impurities ([1]; target pH 2.0, 40° C. 1 wk) of 0.99 and an Assay ([1]; target pH 2.0, 40° C. 2 wk) of 0.955. The pH ([1]; target pH 2.0, 40° C. 2 wk) was 1.98, the Impurities ([1]; target pH 2.0, 40° C. 2 wk) was 1.55 and the Assay ([1]; target pH 2.0, 40° C. 4 wk) was 0.956. For the same compound, the pH ([1]; target pH 2.0, 40° C. 4 wk) was 1.98, the Impurities ([1]; target pH 2.0, 40° C. 4 wk) was 2.84 and the Assay ([1]; target pH 2.0, 60° C. 1 wk) was 0.913. The pH ([1]; target pH 2.0, 60° C. 1 wk) was 2.00, the Impurities ([1]; target pH 2.0, 60° C. 1 wk) was 3.87 and the Assay ([1]; target pH 2.0, 60° C. 2 wk) was 0.851. For the same compound, the pH ([1]; target pH 2.0, 60° C. 2 wk) was 1.97, the Impurities ([1]; target pH 2.0, 60° C. 2 wk) was 7.56 and the Assay ([1]; target pH 2.0, 60° C. 4 wk) was 0.768. For the same compound, the pH ([1]; target pH 2.0, 60° C. 4 wk) was 1.89, the Impurities ([1]; target pH 2.0, 60° C. 4 wk) was 13.99 and the Assay ([1]; target pH 2.0, initial) was 0.981. It also gave a pH ([1]; target pH 2.0, initial) of 2.00, an Impurities ([1]; target pH 2.0, initial) of 0.14 and an Assay ([1]; target pH 2.3, 40° C. 1 wk) of 0.984. For the same compound, the pH ([1]; target pH 2.3, 40° C. 1 wk) was 2.36, the Impurities ([1]; target pH 2.3, 40° C. 1 wk) was 0.47 and the Assay ([1]; target pH 2.3, 40° C. 2 wk) was 0.993. It also gave a pH ([1]; target pH 2.3, 40° C. 2 wk) of 2.32, an Impurities ([1]; target pH 2.3, 40° C. 2 wk) of 0.63 and an Assay ([1]; target pH 2.3, 40° C. 4 wk) of 0.995. The pH ([1]; target pH 2.3, 40° C. 4 wk) was 2.33, the Impurities ([1]; target pH 2.3, 40° C. 4 wk) was 1.70 and the Assay ([1]; target pH 2.3, 60° C. 1 wk) was 0.961. The pH ([1]; target pH 2.3, 60° C. 1 wk) was 2.36, the Impurities ([1]; target pH 2.3, 60° C. 1 wk) was 1.81 and the Assay ([1]; target pH 2.3, 60° C. 2 wk) was 0.932. It also gave a pH ([1]; target pH 2.3, 60° C. 2 wk) of 2.34, an Impurities ([1]; target pH 2.3, 60° C. 2 wk) of 3.53 and an Assay ([1]; target pH 2.3, 60° C. 4 wk) of 0.916. For the same compound, the pH ([1]; target pH 2.3, 60° C. 4 wk) was 2.28, the Impurities ([1]; target pH 2.3, 60° C. 4 wk) was 6.30 and the Assay ([1]; target pH 2.3, initial) was 0.987. For the same compound, the pH ([1]; target pH 2.3, initial) was 2.33, the Impurities ([1]; target pH 2.3, initial) was 0.09 and the Assay ([1]; target pH 2.7, 40° C. 1 wk) was 0.981. For the same compound, the pH ([1]; target pH 2.7, 40° C. 1 wk) was 2.73, the Impurities ([1]; target pH 2.7, 40° C. 1 wk) was 0.22 and the Assay ([1]; target pH 2.7, 40° C. 2 wk) was 0.985. For the same compound, the pH ([1]; target pH 2.7, 40° C. 2 wk) was 2.72, the Impurities ([1]; target pH 2.7, 40° C. 2 wk) was 0.37 and the Assay ([1]; target pH 2.7, 40° C. 4 wk) was 1.019. For the same compound, the pH ([1]; target pH 2.7, 40° C. 4 wk) was 2.73, the Impurities ([1]; target pH 2.7, 40° C. 4 wk) was 0.61 and the Assay ([1]; target pH 2.7, 60° C. 1 wk) was 0.978. The pH ([1]; target pH 2.7, 60° C. 1 wk) was 2.75, the Impurities ([1]; target pH 2.7, 60° C. 1 wk) was 0.97 and the Assay ([1]; target pH 2.7, 60° C. 2 wk) was 1.144. For the same compound, the pH ([1]; target pH 2.7, 60° C. 2 wk) was 2.74, the Impurities ([1]; target pH 2.7, 60° C. 2 wk) was 1.76 and the Assay ([1]; target pH 2.7, 60° C. 4 wk) was 0.987. For the same compound, the pH ([1]; target pH 2.7, 60° C. 4 wk) was 2.67, the Impurities ([1]; target pH 2.7, 60° C. 4 wk) was 3.09 and the Assay ([1]; target pH 2.7, initial) was 0.987. For the same compound, the pH ([1]; target pH 2.7, initial) was 2.72, the Assay ([1]; target pH 3.0, 40° C. 1 wk) was 1.01 and the pH ([1]; target pH 3.0, 40° C. 1 wk) was 3.04. For the same compound, the Impurities ([1]; target pH 3.0, 40° C. 1 wk) was 0.21, the Assay ([1]; target pH 3.0, 40° C. 2 wk) was 0.987 and the pH ([1]; target pH 3.0, 40° C. 2 wk) was 3.05. It also gave an Impurities ([1]; target pH 3.0, 40° C. 2 wk) of 0.34, an Assay ([1]; target pH 3.0, 40° C. 4 wk) of 1.027 and a pH ([1]; target pH 3.0, 40° C. 4 wk) of 3.04. For the same compound, the Impurities ([1]; target pH 3.0, 40° C. 4 wk) was 0.58, the Assay ([1]; target pH 3.0, 60° C. 1 wk) was 0.991 and the pH ([1]; target pH 3.0, 60° C. 1 wk) was 3.05. It also gave an Impurities ([1]; target pH 3.0, 60° C. 1 wk) of 0.61, an Assay ([1]; target pH 3.0, 60° C. 2 wk) of 0.975 and an Impurities ([1]; target pH 3.0, 60° C. 2 wk) of 1.27. The Assay ([1]; target pH 3.0, 60° C. 4 wk) was 0.987, the Impurities ([1]; target pH 3.0, 60° C. 4 wk) was 1.82 and the Assay ([1]; target pH 3.0, initial) was 1.005. It also gave a pH ([1]; target pH 3.0, initial) of 3.02, an Assay ([1]; target pH 3.3, 40° C. 1 wk) of 1.02 and a pH ([1]; target pH 3.3, 40° C. 1 wk) of 3.35. For the same compound, the Assay ([1]; target pH 3.3, 40° C. 2 wk) was 1.01, the pH ([1]; target pH 3.3, 40° C. 2 wk) was 3.35 and the Assay ([1]; target pH 3.3, 40° C. 4 wk) was 1.047. It also gave a pH ([1]; target pH 3.3, 40° C. 4 wk) of 3.34, an Impurities ([1]; target pH 3.3, 40° C. 4 wk) of 0.25 and an Assay ([1]; target pH 3.3, 60° C. 1 wk) of 0.997. The pH ([1]; target pH 3.3, 60° C. 1 wk) was 3.36, the Impurities ([1]; target pH 3.3, 60° C. 1 wk) was 0.41 and the Assay ([1]; target pH 3.3, 60° C. 2 wk) was 0.995. For the same compound, the pH ([1]; target pH 3.3, 60° C. 2 wk) was 3.37, the Impurities ([1]; target pH 3.3, 60° C. 2 wk) was 0.69 and the Assay ([1]; target pH 3.3, 60° C. 4 wk) was 1.027. It also gave a pH ([1]; target pH 3.3, 60° C. 4 wk) of 3.34, an Impurities ([1]; target pH 3.3, 60° C. 4 wk) of 1.26 and an Assay ([1]; target pH 3.3, initial) of 1.019. The pH ([1]; target pH 3.3, initial) was 3.31, the Assay ([1]; target pH 3.6, 40° C. 1 wk) was 0.991 and the pH ([1]; target pH 3.6, 40° C. 1 wk) was 3.64. The Assay ([1]; target pH 3.6, 40° C. 2 wk) was 0.985, the pH ([1]; target pH 3.6, 40° C. 2 wk) was 3.70 and the Assay ([1]; target pH 3.6, 40° C. 4 wk) was 0.991. For the same compound, the pH ([1]; target pH 3.6, 40° C. 4 wk) was 3.64, the Impurities ([1]; target pH 3.6, 40° C. 4 wk) was 0.17 and the Assay ([1]; target pH 3.6, 60° C. 1 wk) was 0.979. The pH ([1]; target pH 3.6, 60° C. 1 wk) was 3.65, the Impurities ([1]; target pH 3.6, 60° C. 1 wk) was 0.36 and the pH ([1]; target pH 3.6, 60° C. 2 wk) was 3.70. For the same compound, the Impurities ([1]; target pH 3.6, 60° C. 2 wk) was 0.62, the pH ([1]; target pH 3.6, 60° C. 4 wk) was 3.64 and the Impurities ([1]; target pH 3.6, 60° C. 4 wk) was 0.99. The Assay ([1]; target pH 3.6, initial) was 0.996, the pH ([1]; target pH 3.6, initial) was 3.62 and the Impurities ([1]; target pH 3.6, initial) was 0.12.
For `CCCNc1nc(NCCC)nc(N(C)OC)n1.O=S(=O)(O)O` [XXXVI, N-(4,6-Bis-n-propylamino-[1,3,5]triazin-2-yl)-N,O-dimethyl-hydroxylamine hydrogen sulfate], the “minute ventilation, hypoxic ventilatory response” value [2] was “significantly potentiates the hypoxic ventilatory response”.
